Source: patent US10167262B2, “Herbicidal substituted 3-arylpyrazoles” (FMC CORPORATION, priority 2014, dated 2019)

Tests used:
Test in all cases: Test C pre-/postemergence greenhouse test, plant response rating 0-100
Format in all cases: in vivo
[1] = tested on: lambsquarters (Chenopodium album)
How it was run: (§1)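 Plants were treated either at seeding (soil of loam and sand) or as 2–18 cm seedlings in a sphagnum peat mix, using test chemicals in a surfactant-containing non-phytotoxic solvent. Visual assessment relative to controls followed 13–15 days later.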

[2] = tested on: galium (catchweed bedstraw, Galium aparine)
How it was run: as §1

[3] = tested on: pigweed (Amaranthus retroflexus)
How it was run: as §1

[4] = tested on: large (Lg) crabgrass (Digitaria sanguinalis)
How it was run: as §1

[5] = tested on: giant foxtail (Setaria faberii)
How it was run: as §1

[6] = tested on: johnsongrass (Sorghum halepense)
How it was run: as §1

soybean (Glycine max) = tested on: soybean (Glycine max)
How it was run: as §1

[7] = tested on: yellow nutsedge (Cyperus esculentus)
How it was run: as §1

[8] = tested on: winter wheat (Triticum aestivum)
How it was run: as §1

corn (Zea mays) = tested on: corn (Zea mays)
How it was run: as §1

[9] = tested on: velvetleaf (Abutilon theophrasti)
How it was run: as §1

[10] = tested on: Italian ryegrass (Lolium multiflorum)
How it was run: as §1

[11] = tested on: morningglory (Ipomoea coccinea)
How it was run: as §1

[12] = Postemergence, 250 g ai/ha, scale 0 to 100
[13] = Postemergence, 500 g ai/ha, scale 0 to 100
[14] = Preemergence, 0 to 100 scale (0 no effect, 100 complete control), rate 500 g ai/ha per head r3, sub-head of this section not shown

## ON=C(c1ccccc1)c1c[nH]nc1-c1cc(Cl)cc(Cl)c1 [Compound 50]
[1]; Postemergence, 62 g ai/ha
  Plant response rating (0 to 100), Lambsquarters: 80
[1]; Postemergence, 125 g ai/ha
  Plant response rating (0 to 100), Lambsquarters: 100
[1]; [12]
  Plant response rating, Lambsquarters: 100
[2]; Postemergence, 31 g ai/ha
  Plant response rating (0 to 100), Galium: 0
[2]; Postemergence, 62 g ai/ha
  Plant response rating (0 to 100), Galium: 0
[2]; Postemergence, 125 g ai/ha
  Plant response rating (0 to 100), Galium: 5
[2]; [12]
  Plant response rating, Galium: 5
[3]; Postemergence, 62 g ai/ha
  Plant response rating (0 to 100), Pigweed: 75
[3]; Postemergence, 125 g ai/ha
  Plant response rating (0 to 100), Pigweed: 100
[3]; [12]
  Plant response rating, Pigweed: 100
[4]; Postemergence, 31 g ai/ha
  Plant response rating (0 to 100), Crabgrass, Large: 0
[4]; Postemergence, 62 g ai/ha
  Plant response rating (0 to 100), Crabgrass, Large: 0
[4]; Postemergence, 125 g ai/ha
  Plant response rating (0 to 100), Crabgrass, Large: 0
[4]; [12]
  Plant response rating, Crabgrass, Large: 0
[5]; Postemergence, 31 g ai/ha
  Plant response rating (0 to 100), Foxtail, Giant: 0
[5]; Postemergence, 62 g ai/ha
  Plant response rating (0 to 100), Foxtail, Giant: 0
[5]; Postemergence, 125 g ai/ha
  Plant response rating (0 to 100), Foxtail, Giant: 0
[5]; [12]
  Plant response rating, Foxtail, Giant: 0
[6]; Postemergence, 62 g ai/ha
  Plant response rating (0 to 100), Johnsongrass: 0
[6]; Postemergence, 125 g ai/ha
  Plant response rating (0 to 100), Johnsongrass: 0
[6]; [12]
  Plant response rating, Johnsongrass: 0
Soybean (Glycine max); Postemergence, 62 g ai/ha
  Plant response rating (0 to 100), Soybean: 0
Soybean (Glycine max); Postemergence, 125 g ai/ha
  Plant response rating (0 to 100), Soybean: 0
Soybean (Glycine max); [12]
  Plant response rating, Soybean: 0
[7]; Postemergence, 62 g ai/ha
  Plant response rating (0 to 100), Nutsedge, Yellow: 0
[7]; Postemergence, 125 g ai/ha
  Plant response rating (0 to 100), Nutsedge, Yellow: 0
[7]; [12]
  Plant response rating, Nutsedge, Yellow: 0
[8]; Postemergence, 62 g ai/ha
  Plant response rating (0 to 100), Wheat: 0
[8]; Postemergence, 125 g ai/ha
  Plant response rating (0 to 100), Wheat: 0
[8]; [12]
  Plant response rating, Wheat: 0
Corn (Zea mays); Postemergence, 31 g ai/ha
  Plant response rating (0 to 100), Corn: 0
Corn (Zea mays); Postemergence, 62 g ai/ha
  Plant response rating (0 to 100), Corn: 0
Corn (Zea mays); Postemergence, 125 g ai/ha
  Plant response rating (0 to 100), Corn: 0
Corn (Zea mays); [12]
  Plant response rating, Corn: 0
[9]; Postemergence, 62 g ai/ha
  Plant response rating (0 to 100), Velvetleaf: 75
[9]; Postemergence, 125 g ai/ha
  Plant response rating (0 to 100), Velvetleaf: 90
[9]; [12]
  Plant response rating, Velvetleaf: 95
[10]; Postemergence, 62 g ai/ha
  Plant response rating (0 to 100), Ryegrass, Italian: 0
[10]; Postemergence, 125 g ai/ha
  Plant response rating (0 to 100), Ryegrass, Italian: 0
[10]; [12]
  Plant response rating, Ryegrass, Italian: 0
[11]; Postemergence, 62 g ai/ha
  Plant response rating (0 to 100), Morningglory: 0
[11]; Postemergence, 125 g ai/ha
  Plant response rating (0 to 100), Morningglory: 0
[11]; [12]
  Plant response rating, Morningglory: 0

## O=C(c1ccccc1)c1cn(S(=O)(=O)CC(F)(F)F)nc1-c1cc(Cl)cc(Cl)c1 [Compound 3]
[1]; Postemergence, 62 g ai/ha
  Plant response rating (0 to 100), Lambsquarters: 55
[1]; [12]
  Plant response rating, Lambsquarters: 80
[1]; [13]
  Plant response rating, Lambsquarters: 100
[1]; Preemergence, 62 g ai/ha
  Plant response rating, Lambsquarters: 100
[1]; Preemergence, 125 g ai/ha
  Plant response rating, Lambsquarters: 100
[1]; Preemergence, 250 g ai/ha
  Plant response rating, Lambsquarters: 100
[1]; Preemergence, 500 g ai/ha
  Plant response rating, Lambsquarters: 100
[2]; Postemergence, 62 g ai/ha
  Plant response rating (0 to 100), Galium: 0
[2]; Postemergence, 125 g ai/ha
  Plant response rating (0 to 100), Galium: 0
[2]; [12]
  Plant response rating, Galium: 20
[2]; [13]
  Plant response rating, Galium: 30
[2]; Preemergence, 62 g ai/ha
  Plant response rating, Galium: 0
[2]; Preemergence, 125 g ai/ha
  Plant response rating, Galium: 0
[2]; Preemergence, 250 g ai/ha
  Plant response rating, Galium: 0
[2]; Preemergence, 500 g ai/ha
  Plant response rating, Galium: 0
[3]; Postemergence, 62 g ai/ha
  Plant response rating (0 to 100), Pigweed: 85
[3]; Postemergence, 125 g ai/ha
  Plant response rating (0 to 100), Pigweed: 95
[3]; [12]
  Plant response rating, Pigweed: 100
[3]; Preemergence, 62 g ai/ha
  Plant response rating, Pigweed: 30
[3]; Preemergence, 125 g ai/ha
  Plant response rating, Pigweed: 100
[3]; Preemergence, 250 g ai/ha
  Plant response rating, Pigweed: 100
[3]; Preemergence, 500 g ai/ha
  Plant response rating, Pigweed: 100
[4]; Postemergence, 62 g ai/ha
  Plant response rating (0 to 100), Crabgrass, Large: 0
[4]; Postemergence, 125 g ai/ha
  Plant response rating (0 to 100), Crabgrass, Large: 5
[4]; [12]
  Plant response rating, Crabgrass, Large: 5
[4]; [13]
  Plant response rating, Crabgrass, Large: 5
[4]; Preemergence, 62 g ai/ha
  Plant response rating, Crabgrass, Large: 0
[4]; Preemergence, 125 g ai/ha
  Plant response rating, Crabgrass, Large: 0
[4]; Preemergence, 250 g ai/ha
  Plant response rating, Crabgrass, Large: 0
[4]; Preemergence, 500 g ai/ha
  Plant response rating, Crabgrass, Large: 0
[5]; Postemergence, 62 g ai/ha
  Plant response rating (0 to 100), Foxtail, Giant: 0
[5]; Postemergence, 125 g ai/ha
  Plant response rating (0 to 100), Foxtail, Giant: 0
[5]; [12]
  Plant response rating, Foxtail, Giant: 0
[5]; [13]
  Plant response rating, Foxtail, Giant: 0
[5]; Preemergence, 62 g ai/ha
  Plant response rating, Foxtail, Giant: 0
[5]; Preemergence, 125 g ai/ha
  Plant response rating, Foxtail, Giant: 0
[5]; Preemergence, 250 g ai/ha
  Plant response rating, Foxtail, Giant: 0
[5]; Preemergence, 500 g ai/ha
  Plant response rating, Foxtail, Giant: 0
[6]; Postemergence, 62 g ai/ha
  Plant response rating (0 to 100), Johnsongrass: 0
[6]; Postemergence, 125 g ai/ha
  Plant response rating (0 to 100), Johnsongrass: 0
[6]; [12]
  Plant response rating, Johnsongrass: 0
[6]; [13]
  Plant response rating, Johnsongrass: 0
[6]; Preemergence, 62 g ai/ha
  Plant response rating, Johnsongrass: 0
[6]; Preemergence, 125 g ai/ha
  Plant response rating, Johnsongrass: 0
[6]; Preemergence, 250 g ai/ha
  Plant response rating, Johnsongrass: 0
[6]; Preemergence, 500 g ai/ha
  Plant response rating, Johnsongrass: 0
Soybean (Glycine max); Postemergence, 62 g ai/ha
  Plant response rating (0 to 100), Soybean: 0
Soybean (Glycine max); Postemergence, 125 g ai/ha
  Plant response rating (0 to 100), Soybean: 0
Soybean (Glycine max); [12]
  Plant response rating, Soybean: 0
Soybean (Glycine max); [13]
  Plant response rating, Soybean: 0
Soybean (Glycine max); Preemergence, 62 g ai/ha
  Plant response rating, Soybean: 0
Soybean (Glycine max); Preemergence, 125 g ai/ha
  Plant response rating, Soybean: 0
Soybean (Glycine max); Preemergence, 250 g ai/ha
  Plant response rating, Soybean: 0
Soybean (Glycine max); Preemergence, 500 g ai/ha
  Plant response rating, Soybean: 0
Soybean (Glycine max); [14]
  Plant response rating, Soybean: 0
[7]; Postemergence, 62 g ai/ha
  Plant response rating (0 to 100), Nutsedge, Yellow: 0
[7]; Postemergence, 125 g ai/ha
  Plant response rating (0 to 100), Nutsedge, Yellow: 0
[7]; [12]
  Plant response rating, Nutsedge, Yellow: 0
[7]; [13]
  Plant response rating, Nutsedge, Yellow: 0
[7]; Preemergence, 62 g ai/ha
  Plant response rating, Nutsedge, Yellow: 0
[7]; Preemergence, 125 g ai/ha
  Plant response rating, Nutsedge, Yellow: 0
[7]; Preemergence, 250 g ai/ha
  Plant response rating, Nutsedge, Yellow: 0
[7]; Preemergence, 500 g ai/ha
  Plant response rating, Nutsedge, Yellow: 0
[8]; Postemergence, 62 g ai/ha
  Plant response rating (0 to 100), Wheat: 0
[8]; Postemergence, 125 g ai/ha
  Plant response rating (0 to 100), Wheat: 0
[8]; [12]
  Plant response rating, Wheat: 0
[8]; [13]
  Plant response rating, Wheat: 0
[8]; Preemergence, 62 g ai/ha
  Plant response rating, Wheat: 0
[8]; Preemergence, 125 g ai/ha
  Plant response rating, Wheat: 0
[8]; Preemergence, 250 g ai/ha
  Plant response rating, Wheat: 0
[8]; Preemergence, 500 g ai/ha
  Plant response rating, Wheat: 0
[8]; Preemergence, 0 to 100 scale (0 no effect, 100 complete control), rate 500 g ai/ha
  Plant response rating, Wheat: 0
Corn (Zea mays); Postemergence, 62 g ai/ha
  Plant response rating (0 to 100), Corn: 0
Corn (Zea mays); Postemergence, 125 g ai/ha
  Plant response rating (0 to 100), Corn: 5
Corn (Zea mays); [12]
  Plant response rating, Corn: 5
Corn (Zea mays); [13]
  Plant response rating, Corn: 5
Corn (Zea mays); Preemergence, 62 g ai/ha
  Plant response rating, Corn: 0
Corn (Zea mays); Preemergence, 125 g ai/ha
  Plant response rating, Corn: 0
Corn (Zea mays); Preemergence, 250 g ai/ha
  Plant response rating, Corn: 0
Corn (Zea mays); Preemergence, 500 g ai/ha
  Plant response rating, Corn: 0
[9]; Postemergence, 62 g ai/ha
  Plant response rating (0 to 100), Velvetleaf: 70
[9]; Postemergence, 125 g ai/ha
  Plant response rating (0 to 100), Velvetleaf: 70
[9]; [12]
  Plant response rating, Velvetleaf: 75
[9]; [13]
  Plant response rating, Velvetleaf: 85
[9]; Preemergence, 62 g ai/ha
  Plant response rating, Velvetleaf: 50
[9]; Preemergence, 250 g ai/ha
  Plant response rating, Velvetleaf: 55
[9]; Preemergence, 500 g ai/ha
  Plant response rating, Velvetleaf: 100
[9]; [14]
  Plant response rating, Velvetleaf: 20
[10]; Postemergence, 62 g ai/ha
  Plant response rating (0 to 100), Ryegrass, Italian: 0
[10]; Postemergence, 125 g ai/ha
  Plant response rating (0 to 100), Ryegrass, Italian: 0
[10]; [12]
  Plant response rating, Ryegrass, Italian: 0
[10]; [13]
  Plant response rating, Ryegrass, Italian: 0
[10]; Preemergence, 62 g ai/ha
  Plant response rating, Ryegrass, Italian: 0
[10]; Preemergence, 125 g ai/ha
  Plant response rating, Ryegrass, Italian: 0
[10]; Preemergence, 250 g ai/ha
  Plant response rating, Ryegrass, Italian: 0
[10]; Preemergence, 500 g ai/ha
  Plant response rating, Ryegrass, Italian: 0
[10]; [14]
  Plant response rating, Ryegrass, Italian: 0
[11]; Postemergence, 62 g ai/ha
  Plant response rating (0 to 100), Morningglory: 0
[11]; Postemergence, 125 g ai/ha
  Plant response rating (0 to 100), Morningglory: 0
[11]; [12]
  Plant response rating, Morningglory: 0
[11]; [13]
  Plant response rating, Morningglory: 0
[11]; Preemergence, 62 g ai/ha
  Plant response rating, Morningglory: 0
[11]; Preemergence, 125 g ai/ha
  Plant response rating, Morningglory: 0
[11]; Preemergence, 250 g ai/ha
  Plant response rating, Morningglory: 10
[11]; Preemergence, 500 g ai/ha
  Plant response rating, Morningglory: 10
